Assay results published in patent publication US12077503B2, “Substituted cyclic amides and their use as herbicides” (FMC CORPORATION, priority 2015, dated 2024).

Experiments:
Format in all cases: in vivo
[1] = system: barnyardgrass (Echinochloa crus-galli); experiment: Test G Pre-Emergence Protocol; conditions: Echinochloa crus-galli, pre-emergence, 312 h, evaluated after 13 days
Summary of the method: (§1)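 Seeds were sown in standard soil and kept one day in a glasshouse (24/16° C day/night, 14 h light, 65% humidity), then sprayed with compound in acetone/water (50:50) containing 0.5% Tween 20 at 15.625, 62.5 or 250 g/ha. Damage was scored after 13 days (0 = none, 100 = total).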

corn (Zea mays) [2] = experiment: Test G Pre-Emergence Protocol; conditions: Zea mays, pre-emergence, 312 h, evaluated after 13 days
Summary of the method: as §1

[3] = system: giant foxtail (Setaria faberi); experiment: Test G Pre-Emergence Protocol; conditions: Setaria faberi, pre-emergence, 312 h, evaluated after 13 days
Summary of the method: as §1

[4] = system: ivy-leaved morning glory (Ipomoea hederacea); experiment: Test G Pre-Emergence Protocol; conditions: Ipomoea, pre-emergence, 312 h, evaluated after 13 days
Summary of the method: as §1

[5] = system: redroot pigweed (Amaranthus retroflexus); experiment: Test G Pre-Emergence Protocol; conditions: Amaranthus retroflexus, pre-emergence, 312 h, evaluated after 13 days
Summary of the method: as §1

[6] = system: velvetleaf (Abutilon theophrasti); experiment: Test G Pre-Emergence Protocol; conditions: Abutilon theophrasti, pre-emergence, 312 h, evaluated after 13 days
Summary of the method: as §1

[7] = system: barnyardgrass (Echinochloa crus-galli); experiment: Test G Post-Emergence Protocol; conditions: Echinochloa crus-galli, post-emergence, 312 h
Summary of the method: (§2)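 Foliar application was made 8 days after sowing, using an aqueous spray of the active in acetone/water (50:50) with 0.5% Tween 20, at doses of 15.625, 62.5 or 250 g/ha. Injury was assessed 13 days later, where 100 meant the plant was fully damaged.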

corn (Zea mays) [8] = experiment: Test G Post-Emergence Protocol; conditions: Zea mays, post-emergence, 312 h
Summary of the method: as §2

[9] = system: giant foxtail (Setaria faberi); experiment: Test G Post-Emergence Protocol; conditions: Setaria faberi, post-emergence, 312 h
Summary of the method: as §2

[10] = system: ivy-leaved morning glory (Ipomoea hederacea); experiment: Test G Post-Emergence Protocol; conditions: Ipomoea, post-emergence, 312 h
Summary of the method: as §2

[11] = system: redroot pigweed (Amaranthus retroflexus); experiment: Test G Post-Emergence Protocol; conditions: Amaranthus retroflexus, post-emergence, 312 h
Summary of the method: as §2

[12] = system: velvetleaf (Abutilon theophrasti); experiment: Test G Post-Emergence Protocol; conditions: Abutilon theophrasti, post-emergence, 312 h
Summary of the method: as §2

For CN1C[C@@H](c2cncc(F)c2)[C@H](C(=O)Nc2cccc(F)c2F)C1=O (racemic) [Compound 1482], the pest or weed control at 15.625 g/ha ([1]; 15.625 g ai/ha, read-out: Barnyard grass damage rating (100=total damage to plant; 0=no damage to plant)) was 10%, the pest or weed control at 62.5 g/ha ([1]; 62.5 g ai/ha, 100=total damage to plant, 0=no damage to plant, read-out: plant damage rating, Barnyardgrass) was 30% and the pest or weed control at 250 g/ha ([1]; 250 g ai/ha, read-out: Barnyardgrass damage rating (100=total damage to plant; 0=no damage to plant)) was 80%. The plant injury at 15.625 g/ha (corn (Zea mays) [2]; 15.625 g ai/ha, read-out: Corn damage rating (100=total damage to plant; 0=no damage to plant)) was 30%, the plant injury at 62.5 g/ha (corn (Zea mays) [2]; 62.5 g ai/ha, 100=total damage to plant, 0=no damage to plant, read-out: plant damage rating, Corn) was 40% and the plant injury at 250 g/ha (corn (Zea mays) [2]; 250 g ai/ha, read-out: Corn damage rating (100=total damage to plant; 0=no damage to plant)) was 30%. For the same molecule, the pest or weed control at 15.625 g/ha ([3]; 15.625 g ai/ha, read-out: Foxtail, Giant damage rating (100=total damage to plant; 0=no damage to plant)) was 20%, the pest or weed control at 62.5 g/ha ([3]; 62.5 g ai/ha, 100=total damage to plant, 0=no damage to plant, read-out: plant damage rating, Foxtail, Giant) was 60% and the pest or weed control at 250 g/ha ([3]; 250 g ai/ha, read-out: Foxtail, Giant damage rating (100=total damage to plant; 0=no damage to plant)) was 90%. The pest or weed control at 15.625 g/ha ([4]; 15.625 g ai/ha, read-out: Morning-glory, Ivy-leaved damage rating (100=total damage to plant; 0=no damage to plant)) was 0%, the pest or weed control at 62.5 g/ha ([4]; 62.5 g ai/ha, 100=total damage to plant, 0=no damage to plant, read-out: plant damage rating, Morningglory, Ivy-leaved) was 0% and the pest or weed control at 250 g/ha ([4]; 250 g ai/ha, read-out: Morningglory, Ivy-leaved damage rating (100=total damage to plant; 0=no damage to plant)) was 10%. It also gave a pest or weed control at 15.625 g/ha ([5]; 15.625 g ai/ha, read-out: Pigweed, Redroot damage rating (100=total damage to plant; 0=no damage to plant)) of 0%, a pest or weed control at 62.5 g/ha ([5]; 62.5 g ai/ha, 100=total damage to plant, 0=no damage to plant, read-out: plant damage rating, Pigweed, Redroot) of 0% and a pest or weed control at 250 g/ha ([5]; 250 g ai/ha, read-out: Pigweed, Redroot damage rating (100=total damage to plant; 0=no damage to plant)) of 10%. The pest or weed control at 15.625 g/ha ([6]; 15.625 g ai/ha, read-out: Velvetleaf damage rating (100=total damage to plant; 0=no damage to plant)) was 0%, the pest or weed control at 62.5 g/ha ([6]; 62.5 g ai/ha, 100=total damage to plant, 0=no damage to plant, read-out: plant damage rating, Velvetleaf) was 0% and the pest or weed control at 250 g/ha ([6]; 250 g ai/ha, read-out: Velvetleaf damage rating (100=total damage to plant; 0=no damage to plant)) was 10%. The pest or weed control at 15.625 g/ha ([7]; 15.625 g ai/ha, evaluated after 13 days (100=total damage to plant; 0=no damage to plant), read-out: Barnyardgrass damage rating) was 30%, the pest or weed control at 62.5 g/ha ([7]; 62.5 g ai/ha, evaluated after 13 days, read-out: Barnyardgrass damage rating (100=total damage to plant; 0=no damage to plant)) was 30% and the pest or weed control at 250 g/ha ([7]; 250 g ai/ha, evaluated after 13 days, read-out: damage to plant, Barnyardgrass (100=total damage to plant; 0=no damage to plant)) was 60%. The plant injury at 15.625 g/ha (corn (Zea mays) [8]; 15.625 g ai/ha, evaluated after 13 days (100=total damage to plant; 0=no damage to plant), read-out: Corn damage rating) was 20%, the plant injury at 62.5 g/ha (corn (Zea mays) [8]; 62.5 g ai/ha, evaluated after 13 days, read-out: Corn damage rating (100=total damage to plant; 0=no damage to plant)) was 30% and the plant injury at 250 g/ha (corn (Zea mays) [8]; 250 g ai/ha, evaluated after 13 days, read-out: damage to plant, Corn (100=total damage to plant; 0=no damage to plant)) was 30%. For the same molecule, the pest or weed control at 15.625 g/ha ([9]; 15.625 g ai/ha, evaluated after 13 days (100=total damage to plant; 0=no damage to plant), read-out: Foxtail, Giant damage rating) was 30%, the pest or weed control at 62.5 g/ha ([9]; 62.5 g ai/ha, evaluated after 13 days, read-out: Foxtail, Giant damage rating (100=total damage to plant; 0=no damage to plant)) was 30% and the pest or weed control at 250 g/ha ([9]; 250 g ai/ha, evaluated after 13 days, read-out: damage to plant, Foxtail, Giant (100=total damage to plant; 0=no damage to plant)) was 60%. The pest or weed control at 15.625 g/ha ([10]; 15.625 g ai/ha, evaluated after 13 days (100=total damage to plant; 0=no damage to plant), read-out: Morningglory, Ivy-leaved damage rating) was 0%, the pest or weed control at 62.5 g/ha ([10]; 62.5 g ai/ha, evaluated after 13 days, read-out: Morningglory, Ivy-leaved damage rating (100=total damage to plant; 0=no damage to plant)) was 0% and the pest or weed control at 250 g/ha ([10]; 250 g ai/ha, evaluated after 13 days, read-out: damage to plant, Morningglory, Ivy-leaved (100=total damage to plant; 0=no damage to plant)) was 0%. It also gave a pest or weed control at 15.625 g/ha ([11]; 15.625 g ai/ha, evaluated after 13 days (100=total damage to plant; 0=no damage to plant), read-out: Pigweed, Redroot damage rating) of 0%, a pest or weed control at 62.5 g/ha ([11]; 62.5 g ai/ha, evaluated after 13 days, read-out: Pigweed, Redroot damage rating (100=total damage to plant; 0=no damage to plant)) of 0% and a pest or weed control at 250 g/ha ([11]; 250 g ai/ha, evaluated after 13 days, read-out: damage to plant, Pigweed, Redroot (100=total damage to plant; 0=no damage to plant)) of 0%. The pest or weed control at 15.625 g/ha ([12]; 15.625 g ai/ha, evaluated after 13 days (100=total damage to plant; 0=no damage to plant), read-out: Velvetleaf damage rating) was 0%, the pest or weed control at 62.5 g/ha ([12]; 62.5 g ai/ha, evaluated after 13 days, read-out: Velvetleaf damage rating (100=total damage to plant; 0=no damage to plant)) was 0% and the pest or weed control at 250 g/ha ([12]; 250 g ai/ha, evaluated after 13 days, read-out: damage to plant, Velvetleaf (100=total damage to plant; 0=no damage to plant)) was 10%.
